Where a SMILES comes first, the peptide text is derived from it. [ ]: non-standard residue; d: D form. dHyp = O=C(O)[C@H]1C[C@H](O)CN1
Key:
[1] = system: BV2 (mouse microglia) cell line; assay: pHrodo-myelin phagocytosis/cell viability high content imaging assay: viability (cell count, nuclear area, nuclear intensity); settings: 48 hours treatment
Procedure: (§1) All AD Informer Set compounds were tested in two immortalized microglial cell lines, murine (BV2), and human (HMC3), in a high‐content imaging assay in duplicate by the Chu lab. Experimental details and all data can be found as supporting information files.
(§2) The role of microglia in AD has been well documented and was thus chosen as a cell type in which to profile the AD Informer Set.[43], [44], [45] As an example, neuroinflammation, as detected by the presence of activated complement proteins, interleukins, cytokines, and chemokines in microglia and astrocytes, is increased early in AD and is considered pathogenic due to its chronic nature.[33], [34] Cytotoxic effects can be assessed by considering multiple parameters.
(§3) Microglial viability and phagocytosis studies: The pHrodo-myelin phagocytosis/cell viability assay, modified based on a published method, was run with immortalized BV2 (mouse microglia) and HMC3 (human microglia) cell lines in the Chu lab at IUSM. The 384-well plate high content analysis assay with BV2 and HMC3 microglial cell lines is used to quantify both phagocytosis and cell viability simultaneously. High content imaging is performed with the ArrayScan automatic imaging system and imaging analysis done with the software on the system. After allowing cells to adhere overnight, they are treated with compounds for total 48 hours including final 20 hours seeded with pHrodo-myelin (labeled phagocytosis ligand, purified […]
(§4) (approximately 22 hours after pHrodo-myelin addition). Three measurements are extracted from the assay: 1) phagocytosis signal by mean total phagocytosis spot intensity per cell, 2) total cell counts per well as the main measurement of cell viability, and 3) mean average nuclear intensity per cell as profiling of cell health since apoptotic cells showing nuclear intensity increase (early apoptosis) and decrease (later apoptosis), respectively. These measurements allow for evaluation of compound-induced phagocytosis (1) and cytotoxicity (2 and 3). Assays were carried out at a single concentration (10 μM). Idelalisib (10 μM) and cytochalasin-D (4 μM) were used as positive controls in the assay. All data, which was an average of 2 data points, was normalized to untreated wells and reported as % control, which is included in the Supporting Information both as a raw data file and summarized in the compound/gene-annotation file.

[2] = system: HMC3 (human microglia) cell line; assay: as above; settings: 48 hours treatment
Procedure: as §1, §2, §3, §4

[3] = system: BV2 (mouse microglia) cell line; assay: pHrodo-myelin phagocytosis/cell viability high content imaging assay: phagocytosis signal; format: cell-based
Procedure: (§5) It is important to note that stressed cells, such as those that are dying, are prone to show an increase in phagocytosis. […] MerTK promotes phagocytosis and thus MerTK inhibition is proposed to lead to inhibition of phagocytosis.[47]
(§6) phagocytosis and cell viability simultaneously. High content imaging is performed with the
(§7) (approximately 22 hours after pHrodo-myelin addition). Three measurements are extracted
(§8) intensity increase (early apoptosis) and decrease (later apoptosis), respectively. These
and 3). […]

[4] = system: HMC3 (human microglia) cell line; assay: as above; format: cell-based
Procedure: as §5, §6, §7, §8
and 3). […]

[5] = BV2, compound 10 uM, pHrodo-myelin
[6] = HMC3, compound 10 uM, pHrodo-myelin
[7] = BV2 cells, 10 uM compound, 48 hours treatment, pHrodo-myelin final 20 hours
[8] = HMC3 cells, 10 uM compound, 48 hours treatment, pHrodo-myelin final 20 hours

Compound | 1. Cell count (% control) ([1]; BV2, compound 10 uM) | 2. Nuclear Area (% Control) ([1]; BV2, compound 10 uM) | 3. Nuclear DNA Intensity (% control) ([1]; BV2, compound 10 uM) | 1. Cell count (% control) ([2]; HMC3, compound 10 uM) | 2. Nuclear Area (% Control) ([2]; HMC3, compound 10 uM) | 3. Nuclear DNA Intensity (% control) ([2]; HMC3, compound 10 uM) | 4. Phagocytosis (% control) [3, 5] [% control] | 4. Phagocytosis (% control) [4, 6] [% control] | 1. Cell count (% control) ([1]; BV2 cells, 10 uM compound) | 2. Nuclear Area (% Control) ([1]; BV2 cells, 10 uM compound) | 3. Nuclear DNA Intensity (% control) ([1]; BV2 cells, 10 uM compound) | 1. Cell count (% control) ([2]; HMC3 cells, 10 uM compound) | 2. Nuclear Area (% Control) ([2]; HMC3 cells, 10 uM compound) | 3. Nuclear DNA Intensity (% control) ([2]; HMC3 cells, 10 uM compound) | 4. Phagocytosis (% control) [3, 7] [% control] | 4. Phagocytosis (% control) [4, 8] [% control]
CNC(=O)c1cccc(-c2ccc3c(N4CCOC[C@@H]4C)nc(N4CCOC[C@@H]4C)nc3n2)c1 [UNC10302837A] | 47.4 | 94.2 | 117.6 | 99.5 | 83.5 | 103.3 | 328.3 | 149.5 |  |  |  |  |  |  |  | 
CC(=O)N[C@H](Cc1ccc(O)cc1)C(=O)N1CCC[C@@H]1C(=O)N1C[C@@H](O)C[C@@H]1C(=O)NCC(=O)N[C@H](C)C(=O)NCC(N)=O [UNC10303110A] (Ac-[dY][dP][dHyp]G[dA]G-NH2) | 113.8 | 106.0 | 97.3 | 110.1 | 103.7 | 94.9 | 117.7 | 73.8 |  |  |  |  |  |  |  | 
Clc1ccc(N/N=C(\c2ccccc2)c2ccccn2)nc1 [UNC3735A] |  |  |  |  |  |  |  |  | 27.9 | 119.6 | 94.7 | 86.4 | 86.7 | 135.7 | 273.4 | 104.5
Cc1ccc(F)c(NC(=O)Nc2ccc(-c3cccc4[nH]nc(N)c34)cc2)c1 [UNC10302874A] | 24.4 | 127.6 | 103.1 | 43.1 | 121.8 | 105.6 | 235.2 | 29.4 |  |  |  |  |  |  |  | 
CCc1cc2c(cc1N1CCC(N3CCOCC3)CC1)C(C)(C)c1[nH]c3cc(C#N)ccc3c1C2=O [UNC10245077A] | 128.2 | 94.3 | 130.0 | 0.0 | 0.0 | 0.0 | 169.6 | 22.4 |  |  |  |  |  |  |  | 
CC(C)[C@H](O)C(=O)N[C@@H](C)C(=O)N[C@@H]1C(=O)N(C)CCc2ccccc21 [UNC10303095A] |  |  |  |  |  |  |  |  | 134.6 | 102.1 | 104.4 | 156.2 | 97.1 | 97.3 | 150.0 | 70.8
Clc1ccccc1C(c1ccccc1)(c1ccccc1)n1ccnc1 [UNC10100375A] | 67.3 | 102.8 | 90.2 | 105.9 | 98.8 | 95.6 | 144.4 | 70.1 |  |  |  |  |  |  |  | 
NCCCC[C@H](N[C@@H](CCc1ccccc1)C(=O)O)C(=O)N1CCC[C@H]1C(=O)O.O.O [UNC10302835A] | 119.8 | 103.4 | 99.2 | 155.8 | 99.6 | 95.8 | 121.2 | 70.9 |  |  |  |  |  |  |  | 
